Experimental data as given in patent US20190000847A1, “THERAPEUTIC AGENT FOR A WOUND” (DAIICHI SANKYO COMPANY LIMITED, priority 2015, published 2019).
Read-outs that look alike come from different tables or passages of the source.

How the values were obtained:
[1] = system: db/db mice; assay: Test Example 2: wound healing experiment, full thickness skin wound; type: in vivo; settings: male db/db mice; for number of days required for 50% reduction in the percent wound area / 75% healing rate (proportion of individuals that achieved 75% or more reduction in the percent wound area at day 14) / area under the curve (AUC) of the percent wound area: full thickness skin wound; for number of days required for 50% reduction in the percent wound area / 75% healing rate (proportion of individuals that achieved 75% or more reduction in the percent wound area at day 14): compound B 0.15 mM dropwise; for number of days required for 50% reduction in the percent wound area: bFGF sprayed five times (approx. 30 μg), negative control 11.0 days (FIG. 4B); for 75% healing rate (proportion of individuals that achieved 75% or more reduction in the percent wound area at day 14): bFGF spray, negative control 16.7% (FIG. 4C); for area under the curve (AUC) of the percent wound area: 0.15 mM dropwise
Method: A positive control bFGF (trafermin (genetic recombination) formulation, Fiblast(trademark) spray) approved as a therapeutic agent for pressure ulcer and skin ulcer was sprayed five times (approximately 30 μg was administered per 6 cm in diameter) to the wound site from approximately 5 cm apart according to the dose regimen. […] The test was conducted with 6 animals per group.

[2] = system: SD rats; settings: male SD rats
Method: Pressure ulcer was created by pressure load on the right third trochanters of 8-week-old male SD rats. The skin on the right third trochanter of each rat was shaved with an electric shaver. A pressure of 902.3 to 911.2 g/cm^2 was loaded on the right third trochanter for 24 hours under anesthesia with pentobarbital and allobarbital. 2 days after cancellation of the pressure load, necrotic tissues were surgically removed under isoflurane anesthesia. When the necrotic tissue removal date was defined as day 1, compound A was administered dropwise (0.02 to 0.06 mL per wound site) at a concentration of 0.5 mM to the wound site once a day and protected with gauze and a waterproof film. The negative control used was a test substance solubilizing solvent (10% Lutrol F127, 2% propylene glycol, 20 mM Tris buffer (pH 8.5)). The major axis and minor axis of the wound surface were measured every day with a vernier caliper, and the wound area (major axis×minor axis) was calculated. When the wound area of day 1 was defined as 100%, the calculated area at each day was calculated in terms of the percentage (%) of the area of the wound creation date. The test was conducted with 10 animals per group.

[3] = system: db/db mice; settings: male db/db mice, 8 mm full thickness skin wound
Method: A full thickness skin wound was prepared on the backs of 9-week-old male db/db mice. The back of each mouse was shaved with an electric shaver under isoflurane anesthesia, and a full thickness skin wound of 8 mm in diameter was created on the back with a disposable biopsy punch. Compound A was administered dropwise (0.04 mL per wound site) at a concentration of 0.5 mM to the wound site once a day over 4 days from the wound creation date and protected with a dressing (Tegaderm Transparent Dressing). The negative control used was a test substance solubilizing solvent (10% Lutrol F127, 2% propylene glycol, 20 mM Tris buffer (pH 8.5)). 1, 4, 7, 9, 11, 15, and 18 days after the wound creation date, the wound site was photographed with a digital camera, and the wound area was calculated using image analysis software. When the wound area of the wound creation date was defined as 100%, the area at each day of photographing was calculated in terms of the percentage (%) of the area of the wound creation date. The test was conducted with 8 animals per group.

| Molecule | number of days required for 50% reduction in the percent wound area [1] | 75% healing rate (proportion of individuals that achieved 75% or more reduction in the percent wound area at day 14) [1] | time dependent change in the percent wound area ([2]; pressure ulcer on right third trochanter, 0.5 mM dropwise 0.02 to 0.06 mL per wound site once a day, vs negative control (FIG. 5)) | number of days required for healing ([2]; pressure ulcer, 0.5 mM dropwise once a day, negative control 25.3 days (FIG. 6B)) | area under the curve (AUC) of the percent wound area ([2]; pressure ulcer, 0.5 mM dropwise once a day, vs negative control (FIG. 6A)) | time dependent change in the healing rate (complete healing rate) ([2]; pressure ulcer, 0.5 mM dropwise once a day, vs negative control (FIG. 6C)) | time-dependent change in the percent wound area ([3]; 0.5 mM dropwise 0.04 mL per wound site once a day over 4 days, days 1-18, vs negative control (FIG. 1)) | area under the curve (AUC) of the percent wound area ([3]; 0.5 mM dropwise once a day over 4 days, vs negative control (FIG. 2)) | time dependent change in the percent wound area ([1]; 8 mm full thickness skin wound, 0.15 mM dropwise 0.04 mL per wound site at days 1, 2, 4, 7, 10, 14, 17, 22, vs negative control (FIG. 3)) | area under the curve (AUC) of the percent wound area ([1]; compared with negative control group (FIG. 4A)) | area under the curve (AUC) of the percent wound area ([1]; compared with positive control bFGF administration group (FIG. 4A)) |
| --- | --- | --- | --- | --- | --- | --- | --- | --- | --- | --- | --- |
| bFGF: positive control bFGF (trafermin (genetic recombination) formulation, Fiblast spray) approved as a therapeutic agent for pressure ulcer and skin ulcer | 10.2 days | 50.0% |  |  |  |  |  |  |  |  |  |
| Cc1nc(CC2CCN(c3ccc(-c4ccc(CO)cc4)cc3)CC2)nc(C(=O)NCC(=O)O)c1O [Compound A] |  |  | reduced the percent wound area at each point of evaluation, as compared with the negative control | 21.5 days | low value as compared with AUC of the negative control group | significant elevation in the healing rate as compared with the negative control group | reduced the percent wound area at each point of evaluation, as compared with the negative control | low value as compared with AUC of the negative control group |  |  |  |
| Cc1nc(CC2CCN(c3ccc(-c4ccc(C[C@H](C)O)cc4)cc3)CC2)nc(C(=O)NCC(=O)O)c1O [Compound B, [({5-Hydroxy-2-[(1-{4′-[(2S)-2-hydroxypropyl]biphenyl-4-yl}piperidin-4-yl)methyl]-6-methylpyrimidin-4-yl}carbonyl)amino]acetic acid] | 9.2 days | 83.3% |  |  |  |  |  |  | reduced the percent wound area at each point of evaluation, as compared with the negative control | low value as compared with AUC of the negative control group | low value as compared with the positive control bFGF administration group |
